# What was measured:
# EHMT1 = biological target: T1, EHMT1 (Homo sapiens, UniProt Q9H9B1); assay: EHMT1 enzyme assay on peptide substrate (EHMT1 PEP); type: biochemical; details: read-out: EHMT1 PEP (IC50 μM)
# T1 sequence (Q9H9B1 1-1298): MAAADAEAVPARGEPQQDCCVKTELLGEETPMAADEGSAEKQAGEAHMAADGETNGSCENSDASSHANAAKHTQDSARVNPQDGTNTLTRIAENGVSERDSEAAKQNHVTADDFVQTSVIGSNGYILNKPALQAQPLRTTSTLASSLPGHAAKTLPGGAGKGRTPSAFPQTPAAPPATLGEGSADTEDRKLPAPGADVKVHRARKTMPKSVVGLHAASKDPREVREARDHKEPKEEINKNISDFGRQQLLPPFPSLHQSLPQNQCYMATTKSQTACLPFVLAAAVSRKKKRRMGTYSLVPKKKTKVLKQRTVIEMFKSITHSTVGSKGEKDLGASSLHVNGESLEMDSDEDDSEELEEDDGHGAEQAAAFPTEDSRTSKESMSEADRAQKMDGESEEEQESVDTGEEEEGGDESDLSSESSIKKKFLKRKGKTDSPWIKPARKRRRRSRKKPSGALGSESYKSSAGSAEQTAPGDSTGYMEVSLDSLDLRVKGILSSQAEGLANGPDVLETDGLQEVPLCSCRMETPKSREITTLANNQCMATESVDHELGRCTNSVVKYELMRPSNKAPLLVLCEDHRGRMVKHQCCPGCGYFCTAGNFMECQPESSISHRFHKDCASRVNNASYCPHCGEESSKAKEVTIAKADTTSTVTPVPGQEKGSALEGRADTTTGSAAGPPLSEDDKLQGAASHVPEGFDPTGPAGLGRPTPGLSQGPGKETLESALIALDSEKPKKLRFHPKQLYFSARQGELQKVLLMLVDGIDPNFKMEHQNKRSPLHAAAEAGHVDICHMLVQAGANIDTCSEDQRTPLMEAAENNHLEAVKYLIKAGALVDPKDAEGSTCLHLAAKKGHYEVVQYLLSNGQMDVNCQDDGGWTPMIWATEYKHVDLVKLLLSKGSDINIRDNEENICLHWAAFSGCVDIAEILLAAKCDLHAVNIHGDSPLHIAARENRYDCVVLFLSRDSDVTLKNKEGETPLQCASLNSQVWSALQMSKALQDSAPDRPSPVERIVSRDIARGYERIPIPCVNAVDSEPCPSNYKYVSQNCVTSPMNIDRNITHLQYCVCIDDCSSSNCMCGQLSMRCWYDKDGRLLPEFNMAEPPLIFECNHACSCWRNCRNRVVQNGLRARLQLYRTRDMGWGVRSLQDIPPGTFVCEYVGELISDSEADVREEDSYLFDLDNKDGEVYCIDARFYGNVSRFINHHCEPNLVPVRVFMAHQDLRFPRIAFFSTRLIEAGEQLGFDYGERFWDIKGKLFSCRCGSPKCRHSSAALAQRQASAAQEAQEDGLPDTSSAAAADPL
# human EHMT2 913-1193 = biological target: T2, human EHMT2 913-1193 (Homo sapiens, UniProt Q96KQ7); assay: EHMT2 enzyme assay on histone peptide substrate (EHMT2 PEP); type: biochemical; details: recombinant human EHMT2 913-1193, histone H3 1-15 peptide, balanced conditions; read-out: EHMT2 PEP (IC50 μM)
# T2 construct: recombinant purified human EHMT2 913-1193, Viva; purchased Viva
# T2 sequence (Q96KQ7 913-1193): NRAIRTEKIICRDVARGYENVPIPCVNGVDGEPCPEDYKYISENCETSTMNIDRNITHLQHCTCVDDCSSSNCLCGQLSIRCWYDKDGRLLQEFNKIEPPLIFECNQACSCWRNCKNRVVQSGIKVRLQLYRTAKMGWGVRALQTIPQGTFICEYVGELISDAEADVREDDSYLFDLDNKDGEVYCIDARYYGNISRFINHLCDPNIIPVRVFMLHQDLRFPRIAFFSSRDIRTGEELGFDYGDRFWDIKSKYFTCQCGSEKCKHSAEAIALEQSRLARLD
# Method in brief: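 Compounds (10-point, 3-fold dilutions, top 50 μM final, 2% DMSO) preincubated 30 min with 0.031 nM EHMT2 in 20 mM Bicine pH 7.5, 0.002% Tween 20, 0.005% gelatin, 1 mM TCEP. Biotinylated histone peptide methylated with ^3H-SAM 60 min at room temperature. Quenched with unlabeled SAM; product captured on streptavidin Flashplate, scintillation counted.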
SMILES,IC50 (EHMT1) [µM],IC50 (human EHMT2 913-1193) [µM]
COc1ncc(Nc2nc(C)cc(NCC3CCOCC3)n2)cc1OCCCN1CCCC1 [Compound 591],< 0.1,< 0.1
COc1ncc(Nc2nc(C)cc(NCC3CCOCC3)n2)cc1OC[C@@H]1CCN(C(C)C)C1 [Compound 592],0.1 to 1,0.1 to 1
COc1ncc(Nc2nc(C)cc(NC(C)C)n2)cc1OCCCN1CCCC1 [Compound 593],0.1 to 1,0.1 to 1
C/C=C/C(=O)Nc1ccc(OC)c(OCCCN2CCCC2)c1 [Compound 598],> 10,> 10
CCc1cc(NC)nc(Nc2cnc(OC)c(OC[C@@H]3CCN(CC)C3)c2)n1 [Compound 601],< 0.1,0.1 to 1
CCN1CC[C@@H](COc2cc(Nc3nc(C)cc(NC(C)C)n3)ccc2OC)C1 [Compound 602],0.1 to 1,0.1 to 1

# Next, values leading:
IC50 (EHMT1) [µM],IC50 (human EHMT2 913-1193) [µM],SMILES
< 0.1,0.1 to 1,COc1ncc(Nc2nc(C)cc(NCC3CCOCC3)n2)cc1OC[C@@H]1CCN(C2CCC2)C1 [Compound 594]
0.1 to 1,0.1 to 1,COc1ncc(Nc2nc(C)cc(NCC3CCOCC3)n2)cc1OC[C@@H]1CCN(C2CCC2)C1 [Compound 595]
1 to 10,1 to 10,COc1cnc(Nc2cc(C)nc3[nH]ncc23)cc1OCCCN1CCCC1 [Compound 596]
> 10,> 10,C/C=C/C(=O)Nc1cc(OCCCN2CCCC2)c(OC)cn1 [Compound 597]
< 0.1,0.1 to 1,CCN1CC[C@@H](COc2cc(Nc3nc(C)cc(NC)n3)cnc2OC)C1 [Compound 599]
< 0.1,< 0.1,CNc1cc(C)nc(Nc2ccc(OC)c(OC[C@@H]3CCNC3)c2)n1 [Compound 600]
< 0.1,< 0.1,COc1ccc(Nc2nc(C)cc(NC(C)C)n2)cc1OCCCN1CCCC1 [Compound 603]

# — US20210198277A1, “AMINE-SUBSTITUTED ARYL OR HETEROARYL COMPOUNDS” (Epizyme, Inc., priority 2016, published 2021)
